Data taken from PubChem BioAssay AID2060613 (Molecular Pharmacology Branch, DTP, NCI, 2025).
Values joined by “and” are separate entries in the source; they are usually repeats but may differ in a detail not shown here. Equal entries are not always repeated.

Tested on: 233499-124-R-J3-PDC complex spheroid viability
Test: Anticancer human tumor 233499-124-R-J3-PDC patient-derived colon adenocarcinoma cell line growth inhibition [CLK]
Conditions: for viability, T/C: stronger effect = lower value
Procedure, shortened: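 Multi-cell-type spheroids combined patient-derived tumor cells with HUVEC endothelial cells and human mesenchymal stem cells. Paired agents were dosed in half-log steps down from about clinical Cmax, or from 10 microM where Cmax was unknown.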

[1] = curve of first compound, second compound 0.0316 µM
[2] = curve of first compound, second compound 0.1 µM
[3] = curve of first compound, second compound 0.316 µM
[4] = curve of first compound, second compound 1 µM
[5] = curve of first compound, second compound 3.16 µM
[6] = curve of first compound, second compound 10 µM
[7] = second compound 0.0316 µM, first compound 0.0316 µM
[8] = second compound 0.0316 µM, first compound 0.1 µM
[9] = second compound 0.0316 µM, first compound 0.316 µM
[10] = second compound 0.0316 µM, first compound 1 µM
[11] = second compound 0.0316 µM, first compound 3.16 µM
[12] = second compound 0.0316 µM, first compound 10 µM
[13] = second compound 0.1 µM, first compound 0.0316 µM
[14] = second compound 0.1 µM, first compound 0.1 µM
[15] = second compound 0.1 µM, first compound 0.316 µM
[16] = second compound 0.1 µM, first compound 1 µM
[17] = second compound 0.1 µM, first compound 3.16 µM
[18] = second compound 0.1 µM, first compound 10 µM
[19] = second compound 0.316 µM, first compound 0.0316 µM
[20] = second compound 0.316 µM, first compound 0.1 µM
[21] = second compound 0.316 µM, first compound 0.316 µM
[22] = second compound 0.316 µM, first compound 1 µM
[23] = second compound 0.316 µM, first compound 3.16 µM
[24] = second compound 0.316 µM, first compound 10 µM
[25] = second compound 1 µM, first compound 0.0316 µM
[26] = second compound 1 µM, first compound 0.1 µM
[27] = second compound 1 µM, first compound 0.316 µM
[28] = second compound 1 µM, first compound 1 µM
[29] = second compound 1 µM, first compound 3.16 µM
[30] = second compound 1 µM, first compound 10 µM
[31] = second compound 3.16 µM, first compound 0.0316 µM
[32] = second compound 3.16 µM, first compound 0.1 µM
[33] = second compound 3.16 µM, first compound 0.316 µM
[34] = second compound 3.16 µM, first compound 1 µM
[35] = second compound 3.16 µM, first compound 3.16 µM
[36] = second compound 3.16 µM, first compound 10 µM
[37] = second compound 10 µM, first compound 0.0316 µM
[38] = second compound 10 µM, first compound 0.1 µM
[39] = second compound 10 µM, first compound 0.316 µM
[40] = second compound 10 µM, first compound 1 µM
[41] = second compound 10 µM, first compound 3.16 µM
[42] = second compound 10 µM, first compound 10 µM
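Further: spheroids exposed to the drug combinations for seven days.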
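Wherever viability, T/C is given: percent viability relative to DMSO vehicle control wells taken as 100%.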

O=c1[nH]cc(F)c(=O)[nH]1
viability, T/C (compound 0.0316 µM): 94.9% and 97.3%
viability, T/C (compound 0.1 µM): 106% and 96%
viability, T/C (compound 0.316 µM): 55.2% and 69.3%
viability, T/C (compound 1 µM): 50.6% and 37.5%
viability, T/C (compound 3.16 µM): 31.1% and 20.9%
viability, T/C (compound 10 µM): 30.8% and 23.1%
IC50 (curve of compound): 444 nM and 625 nM

C=CC(=O)N1CCN(c2nc(=O)n(-c3c(C)ccnc3C(C)C)c3nc(-c4c(O)cccc4F)c(F)cc23)C(C)C1 (centres undefined) + CNC(=O)c1ccc(Nc2nc(OC3CCCC3)c3c(-c4ccc5nc(C)oc5c4)c[nH]c3n2)c(OC)c1
IC50 [1]: > 10000 nM
IC50 [2]: > 10000 nM
IC50 [3]: > 10000 nM
IC50 [4]: > 10000 nM
IC50 [5]: > 10000 nM
IC50 [6]: > 10000 nM
viability, T/C [7]: 84.8%
viability, T/C [8]: 86.5%
viability, T/C [9]: 94.4%
viability, T/C [10]: 93.6%
viability, T/C [11]: 96.3%
viability, T/C [12]: 98.3%
viability, T/C [13]: 79.6%
viability, T/C [14]: 71.6%
viability, T/C [15]: 72.6%
viability, T/C [16]: 79.7%
viability, T/C [17]: 85.2%
viability, T/C [18]: 77.5%
viability, T/C [19]: 75.9%
viability, T/C [20]: 76.4%
viability, T/C [21]: 75.8%
viability, T/C [22]: 75.4%
viability, T/C [23]: 80.5%
viability, T/C [24]: 82.8%
viability, T/C [25]: 81.2%
viability, T/C [26]: 73.7%
viability, T/C [27]: 74.3%
viability, T/C [28]: 87.5%
viability, T/C [29]: 90%
viability, T/C [30]: 86.4%
viability, T/C [31]: 68.5%
viability, T/C [32]: 71.3%
viability, T/C [33]: 65.7%
viability, T/C [34]: 86.7%
viability, T/C [35]: 80.5%
viability, T/C [36]: 76.7%
viability, T/C [37]: 71.2%
viability, T/C [38]: 78.4%
viability, T/C [39]: 69.6%
viability, T/C [40]: 74.8%
viability, T/C [41]: 81%
viability, T/C [42]: 91.2%

COc1ccc([C@@H](O)c2cc(-c3ncnc4cc(N5CCOCC5)ccc34)c(F)cc2Cl)nn1 + CN1CCN(c2cc(C(=O)Nc3cc4cc(-c5cnn(C)c5)ccc4cn3)ccn2)CC1
IC50 [1]: > 10000 nM
IC50 [2]: 9830 nM
IC50 [3]: 8500 nM
IC50 [4]: < 31.6 nM
IC50 [5]: < 31.6 nM
IC50 [6]: < 31.6 nM
viability, T/C [7]: 101%
viability, T/C [8]: 99.3%
viability, T/C [9]: 102%
viability, T/C [10]: 105%
viability, T/C [11]: 83%
viability, T/C [12]: 56.7%
viability, T/C [13]: 98.7%
viability, T/C [14]: 95%
viability, T/C [15]: 105%
viability, T/C [16]: 93.7%
viability, T/C [17]: 78.9%
viability, T/C [18]: 49.5%
viability, T/C [19]: 80.5%
viability, T/C [20]: 92.5%
viability, T/C [21]: 96%
viability, T/C [22]: 88.3%
viability, T/C [23]: 87.7%
viability, T/C [24]: 43.8%
viability, T/C [25]: 0.59%
viability, T/C [26]: 0.54%
viability, T/C [27]: 0.4%
viability, T/C [28]: 0.92%
viability, T/C [29]: 0.89%
viability, T/C [30]: 0.79%
viability, T/C [31]: 0.54%
viability, T/C [32]: 0.7%
viability, T/C [33]: 0.68%
viability, T/C [34]: 0.83%
viability, T/C [35]: 0.94%
viability, T/C [36]: 1.93%
viability, T/C [37]: 0.36%
viability, T/C [38]: 0.41%
viability, T/C [39]: 0.43%
viability, T/C [40]: 0.46%
viability, T/C [41]: 0.73%
viability, T/C [42]: 1.14%

CNC(=O)c1ccc(Nc2nc(OC3CCCC3)c3c(-c4ccc5nc(C)oc5c4)c[nH]c3n2)c(OC)c1
viability, T/C (compound 0.0316 µM): 93.9% [middle of 12 runs]
viability, T/C (compound 0.316 µM): 74% [middle of 12 runs]
viability, T/C (compound 3.16 µM): 75.3% [middle of 12 runs]
viability, T/C (compound 10 µM): 72.6% [middle of 12 runs]
IC50 (compound alone, run of 08/01/2023): > 10000 nM

COc1c(OCCCN2CCOCC2)ccc2c3n(c(=NC(=O)c4cnc(N)nc4)nc12)CCN3
viability, T/C (compound 0.00316 µM): 83%
viability, T/C (compound 0.01 µM): 86%
viability, T/C (compound 0.0316 µM): 88.8%
viability, T/C (compound 0.1 µM): 49.3%
viability, T/C (compound 0.316 µM): 34.4%
viability, T/C (compound 1 µM): 3.62%
IC50 (curve of compound): 141 nM

CCCS(=O)(=O)Nc1ccc(F)c(C(=O)c2c[nH]c3ncc(-c4ccc(Cl)cc4)cc23)c1F + CNC(=O)c1ccc(Nc2nc(OC3CCCC3)c3c(-c4ccc5nc(C)oc5c4)c[nH]c3n2)c(OC)c1
IC50 [1]: > 10000 nM
IC50 [2]: > 10000 nM
IC50 [3]: 8400 nM
IC50 [4]: 5870 nM
IC50 [5]: 5070 nM
IC50 [6]: 4150 nM
viability, T/C [7]: 89.6%
viability, T/C [8]: 96.5%
viability, T/C [9]: 103%
viability, T/C [10]: 102%
viability, T/C [11]: 97.9%
viability, T/C [12]: 64.9%
viability, T/C [13]: 75.7%
viability, T/C [14]: 86.8%
viability, T/C [15]: 82.2%
viability, T/C [16]: 86.8%
viability, T/C [17]: 85.5%
viability, T/C [18]: 50%
viability, T/C [19]: 75.9%
viability, T/C [20]: 87.4%
viability, T/C [21]: 90.6%
viability, T/C [22]: 90.3%
viability, T/C [23]: 90.3%
viability, T/C [24]: 43.4%
viability, T/C [25]: 90.1%
viability, T/C [26]: 90.5%
viability, T/C [27]: 78.7%
viability, T/C [28]: 85.3%
viability, T/C [29]: 91%
viability, T/C [30]: 18%
viability, T/C [31]: 76.1%
viability, T/C [32]: 90.1%
viability, T/C [33]: 84.6%
viability, T/C [34]: 83.6%
viability, T/C [35]: 76.5%
viability, T/C [36]: 11.9%
viability, T/C [37]: 76.7%
viability, T/C [38]: 78.4%
viability, T/C [39]: 79.2%
viability, T/C [40]: 81.3%
viability, T/C [41]: 60.9%
viability, T/C [42]: 14.6%

COc1cccc2c1C(=O)c1c(O)c3c(c(O)c1C2=O)CC(O)(C(=O)CO)CC3OC1CC(N)C(O)C(C)O1 (centres undefined) + CN1CCN(c2cc(C(=O)Nc3cc4cc(-c5cnn(C)c5)ccc4cn3)ccn2)CC1
IC50 [1]: 2550 nM
IC50 [2]: 1780 nM
IC50 [3]: 1940 nM
IC50 [4]: < 31.6 nM
IC50 [5]: < 31.6 nM
IC50 [6]: < 31.6 nM
viability, T/C [7]: 80.4%
viability, T/C [8]: 110%
viability, T/C [9]: 106%
viability, T/C [10]: 80.9%
viability, T/C [11]: 43.2%
viability, T/C [12]: 10.8%
viability, T/C [13]: 98%
viability, T/C [14]: 110%
viability, T/C [15]: 100%
viability, T/C [16]: 68.5%
viability, T/C [17]: 30.7%
viability, T/C [18]: 5.13%
viability, T/C [19]: 84.7%
viability, T/C [20]: 97.6%
viability, T/C [21]: 66.5%
viability, T/C [22]: 61.9%
viability, T/C [23]: 44.4%
viability, T/C [24]: 2.79%
viability, T/C [25]: 0.46%
viability, T/C [26]: 0.59%
viability, T/C [27]: 10.8%
viability, T/C [28]: 0.33%
viability, T/C [29]: 5.03%
viability, T/C [30]: 0.81%
viability, T/C [31]: 0.55%
viability, T/C [32]: 0.57%
viability, T/C [33]: 0.48%
viability, T/C [34]: 0.43%
viability, T/C [35]: 0.53%
viability, T/C [36]: 0.67%
viability, T/C [37]: 0.35%
viability, T/C [38]: 0.39%
viability, T/C [39]: 0.38%
viability, T/C [40]: 0.34%
viability, T/C [41]: 0.3%
viability, T/C [42]: 0.24%

COC1C=CCC(C)C(C)S(=O)(=O)NC(=O)c2ccc3c(c2)N(CC2CCC21)CC1(CCCc2cc(Cl)ccc21)CO3 (centres undefined) + CNC(=O)c1ccc(Nc2nc(OC3CCCC3)c3c(-c4ccc5nc(C)oc5c4)c[nH]c3n2)c(OC)c1
IC50 [1]: 4620 nM
IC50 [2]: 135 nM
IC50 [3]: 135 nM
IC50 [4]: 113 nM
IC50 [5]: 59.5 nM
IC50 [6]: 129 nM
viability, T/C [7]: 90.8%
viability, T/C [8]: 93.5%
viability, T/C [9]: 92.5%
viability, T/C [10]: 82.2%
viability, T/C [11]: 71.2%
viability, T/C [12]: 9.78%
viability, T/C [13]: 83.2%
viability, T/C [14]: 57.4%
viability, T/C [15]: 29.4%
viability, T/C [16]: 19%
viability, T/C [17]: 33.8%
viability, T/C [18]: 11.7%
viability, T/C [19]: 79%
viability, T/C [20]: 61%
viability, T/C [21]: 19%
viability, T/C [22]: 9.42%
viability, T/C [23]: 8.88%
viability, T/C [24]: 9.03%
viability, T/C [25]: 81.2%
viability, T/C [26]: 51.6%
viability, T/C [27]: 29.8%
viability, T/C [28]: 10.1%
viability, T/C [29]: 9.03%
viability, T/C [30]: 6.79%
viability, T/C [31]: 69.2%
viability, T/C [32]: 33.6%
viability, T/C [33]: 19.7%
viability, T/C [34]: 12.3%
viability, T/C [35]: 7%
viability, T/C [36]: 7.88%
viability, T/C [37]: 60.6%
viability, T/C [38]: 59.5%
viability, T/C [39]: 17.5%
viability, T/C [40]: 11.5%
viability, T/C [41]: 7.72%
viability, T/C [42]: 5.45%
